Data: patent US7803930B2, “Antisense modulation of apolipoprotein B-expression” (Isis Pharmaceuticals, Inc., priority 2002, dated 2010)
In the oligonucleotide strings, read from the 5' end, every base follows the letter of its sugar. An asterisk marks phosphorothioate; unmarked linkages are phosphodiester. Other units and linkages are bracketed, terminal groups are in braces. A string of capitals states the bases alone. e = 2'-O-(2-methoxyethyl) (MOE); [5mC] = 5-methylcytosine; d = 2'-deoxy (DNA)

Tested on: human apolipoprotein B mRNA
Assay: Inhibition of human apolipoprotein B mRNA levels in HepG2 cells, quantitative real-time PCR
Type: cell-based
Conditions: HepG2 cells; for % INHIB: Table 1, averages from two experiments; for % INHIB / Percent Inhibition 150 nM: 150 nM; for Percent Inhibition 50 nM / Percent Inhibition 150 nM / Percent Inhibition 250 nM: Table 2
Procedure: The human hepatoblastoma cell line HepG2 was obtained from the American Type Culture Collection (Manassas, Va.). HepG2 cells were routinely cultured in Eagle's MEM supplemented with 10% fetal calf serum, non-essential amino acids, and 1 mM sodium pyruvate (Gibco/Life Technologies, Gaithersburg, Md.). Cells were routinely passaged by trypsinization and dilution when they reached 90% confluence. Cells were seeded into 96-well plates (Falcon-Primaria #3872) at a density of 7000 cells/well for use in RT-PCR analysis.
When cells reached 80% confluency, they were treated with oligonucleotide. For cells grown in 96-well plates, wells were washed once with 200 μL OPTI-MEM™-1 reduced-serum medium (Gibco BRL) and then treated with 130 μL of OPTI-MEM™-1 containing 3.75 μg/mL LIPOFECTIN™ (Gibco BRL) and the desired concentration of oligonucleotide. After 4-7 hours of treatment, the medium was replaced with fresh medium. Cells were harvested 16-24 hours after oligonucleotide treatment.
Quantitation of apolipoprotein B mRNA levels was determined by real-time quantitative PCR using the ABI PRISM™ 7700 Sequence Detection System (PE-Applied Biosystems, Foster City, Calif.) according to manufacturer's instructions. This is a closed-tube, non-gel-based, fluorescence detection system which allows high-throughput quantitation of polymerase chain reaction (PCR) products in real-time. As opposed to standard PCR, in which amplification products are quantitated after the PCR is completed, products in real-time quantitative PCR are quantitated as they accumulate. This is accomplished by including in the PCR reaction an oligonucleotide probe that anneals specifically between the forward and reverse PCR primers, and contains two fluorescent dyes. A reporter dye (e.g., JOE, FAM, or VIC, obtained from either Operon Technologies Inc., Alameda, Calif. or PE-Applied Biosystems, Foster City, Calif.) is attached to the 5′ end of the probe and a quencher dye (e.g., TAMRA, obtained from either Operon Technologies Inc., Alameda, Calif. or PE-Applied Biosystems, Foster City, Calif.) is attached to the 3′ end of the probe. When the probe and dyes are intact, reporter dye emission is quenched by the proximity of the 3′ quencher dye. During amplification, annealing of the probe to the target sequence creates a substrate that can be cleaved by the 5′-exonuclease activity of Taq polymerase. […] With each cycle, additional reporter dye molecules are cleaved from their respective probes, and the fluorescence intensity is monitored at regular intervals by laser optics built into the ABI PRISM™ 7700 Sequence Detection System. In each assay, a series of parallel reactions containing serial dilutions of mRNA from untreated control samples generates a standard curve that is used to quantitate the percent inhibition after antisense oligonucleotide treatment of test samples.
PCR reagents were obtained from PE-Applied Biosystems, Foster City, Calif. RT-PCR reactions were carried out by adding 25 μL PCR cocktail (1× TAQMAN™ buffer A, 5.5 mM MgCl2, 300 μM each of DATP, dCTP and dGTP, 600 μM of dUTP, 100 nM each of forward primer, reverse primer, and probe, 20 Units RNAse inhibitor, 1.25 Units AMPLITAQ GOLD™, and 12.5 Units MuLV reverse transcriptase) to 96 well plates containing 25 μL total RNA solution. The RT reaction was carried out by incubation for 30 minutes at 48° C. Following a 10 minute incubation at 95° C. to activate the AMPLITAQ GOLD™, 40 cycles of a two-step PCR protocol were carried out: 95° C. for 15 seconds (denaturation) followed by 60° C. for 1.5 minutes (annealing/extension).
Gene target quantities obtained by real time RT-PCR are normalized using either the expression level of GAPDH, a gene whose expression is constant, or by quantifying total RNA using RiboGreen™ (Molecular Probes, Inc. Eugene, Oreg.). GAPDH expression is quantified by real time RT-PCR, by being run simultaneously with the target, multiplexing, or separately. […]

| Substance | % INHIB | also measured |
| --- | --- | --- |
| 147780 (antisense e[5mC]*e[5mC]*eG*e[5mC]*eA*dG*dG*dT*d[5mC]*d[5mC]*d[5mC]*dG*dG*dT*dG*eG*eG*eA*eA*eT) [compound 147780] | 40% |  |
| 147781 (antisense eA*e[5mC]*e[5mC]*eG*eA*dG*dA*dA*dG*dG*dG*d[5mC]*dA*d[5mC]*dT*e[5mC]*eA*eG*e[5mC]*e[5mC]) [compound 147781] | 35% |  |
| 147782 (antisense eG*e[5mC]*e[5mC]*eT*e[5mC]*dG*dG*d[5mC]*d[5mC]*dT*d[5mC]*dG*d[5mC]*dG*dG*e[5mC]*e[5mC]*e[5mC]*eT*eG) [compound 147782] | 67% |  |
| 147784 (antisense e[5mC]*eA*eG*e[5mC]*eG*d[5mC]*d[5mC]*dA*dG*d[5mC]*dA*dG*d[5mC]*dG*d[5mC]*e[5mC]*eA*eG*e[5mC]*eA) [compound 147784] | 70% |  |
| 147785 (antisense eG*e[5mC]*e[5mC]*e[5mC]*eG*d[5mC]*d[5mC]*dA*dG*d[5mC]*dA*dG*d[5mC]*dA*dG*e[5mC]*eA*eG*e[5mC]*eA) [compound 147785] | 29% |  |
| 147786 (antisense e[5mC]*eT*eT*eG*eA*dA*dT*d[5mC]*dA*dG*d[5mC]*dA*dG*dT*d[5mC]*e[5mC]*e[5mC]*eA*eG*eG) [compound 147786] | 34% |  |
| 147788 (antisense eT*eT*eT*e[5mC]*eT*dG*dT*dT*dG*d[5mC]*d[5mC]*dA*d[5mC]*dA*dT*eT*eG*e[5mC]*e[5mC]*e[5mC]) [compound 147788] | 95% | Percent Inhibition 50 nM: 54%; Percent Inhibition 150 nM: 63%; Percent Inhibition 250 nM: 72% |
| 147789 (antisense eG*eG*eA*eA*eG*dA*dG*dG*dT*dG*dT*dT*dG*d[5mC]*dT*e[5mC]*e[5mC]*eT*eT*eG) [compound 147789] | 24% |  |
| 147790 (antisense eT*eG*eT*eG*e[5mC]*dT*dA*d[5mC]*d[5mC]*dA*dT*d[5mC]*d[5mC]*d[5mC]*dA*eT*eA*e[5mC]*eT*eT) [compound 147790] | 33% |  |
| 147792 (antisense eG*eG*eA*e[5mC]*eA*d[5mC]*d[5mC]*dT*d[5mC]*dA*dA*dT*d[5mC]*dA*dG*e[5mC]*eT*eG*eT*eG) [compound 147792] | 26% |  |
| 147794 (antisense eG*eT*eA*eA*eT*d[5mC]*dT*dT*d[5mC]*dA*dT*d[5mC]*d[5mC]*d[5mC]*d[5mC]*eA*eG*eT*eG*e[5mC]) [compound 147794] | 47% |  |
| 147796 (antisense eG*e[5mC]*eA*eG*e[5mC]*d[5mC]*dA*dG*dT*d[5mC]*dG*d[5mC]*dT*dT*dA*eT*e[5mC]*eT*e[5mC]*e[5mC]) [compound 147796] | 8% |  |
| 147801 (antisense e[5mC]*eA*eG*eA*e[5mC]*d[5mC]*d[5mC]*dG*dA*d[5mC]*dT*d[5mC]*dG*dT*dG*eG*eA*eA*eG*eA) [compound 147801] | 38% |  |
| 147806 (antisense eA*eT*eG*eT*eG*dG*dT*dA*dA*d[5mC]*dG*dA*dG*d[5mC]*d[5mC]*e[5mC]*eG*eA*eA*eG) [compound 147806] | 100% | Percent Inhibition 50 nM: 23%; Percent Inhibition 150 nM: 45%; Percent Inhibition 250 nM: 28% |
| 147807 (antisense eG*eG*e[5mC]*eG*eT*dA*dG*dA*dG*dA*d[5mC]*d[5mC]*d[5mC]*dA*dT*e[5mC]*eA*e[5mC]*eA*eT) [compound 147807] | 25% |  |
| 147809 (antisense e[5mC]*e[5mC]*e[5mC]*eA*eG*dT*dG*dA*dT*dA*dG*d[5mC]*dT*d[5mC]*dT*eG*eT*eG*eA*eG) [compound 147809] | 60% |  |

| Substance | % INHIB | also measured |
| --- | --- | --- |
| 147810 (antisense eA*eT*eT*eT*e[5mC]*dA*dG*d[5mC]*dA*dT*dA*dT*dG*dA*dG*e[5mC]*e[5mC]*e[5mC]*eA*eT) [compound 147810] | 0% |  |
| 147814 (antisense e[5mC]*e[5mC]*e[5mC]*eA*eA*dT*dA*dA*dG*dA*dT*dT*dT*dA*dT*eA*eA*e[5mC]*eA*eA) [compound 147814] | 34% |  |
| 147815 (antisense eT*eG*eG*e[5mC]*e[5mC]*dT*dA*d[5mC]*d[5mC]*dA*dG*dA*dG*dA*d[5mC]*eA*eG*eG*eT*eA) [compound 147815] | 45% |  |
| 147816 (antisense eT*e[5mC]*eA*eT*eA*d[5mC]*dG*dT*dT*dT*dA*dG*d[5mC]*d[5mC]*d[5mC]*eA*eA*eT*e[5mC]*eT) [compound 147816] | 100% | Percent Inhibition 50 nM: 25%; Percent Inhibition 150 nM: 81%; Percent Inhibition 250 nM: 65% |
| 147817 (antisense eG*e[5mC]*eA*eT*eG*dG*dT*d[5mC]*d[5mC]*d[5mC]*dA*dA*dG*dG*dA*eT*eG*eG*eT*e[5mC]) [compound 147817] | 0% |  |
| 147818 (antisense eA*eG*eT*eG*eA*dT*dG*dG*dA*dA*dG*d[5mC]*dT*dG*d[5mC]*eG*eA*eT*eA*e[5mC]) [compound 147818] | 30% |  |
| 147820 (antisense eG*eA*eA*e[5mC]*eA*d[5mC]*dA*dT*dA*dG*d[5mC]*d[5mC]*dG*dA*dA*eT*eG*e[5mC]*e[5mC]*eG) [compound 147820] | 100% | Percent Inhibition 50 nM: 10%; Percent Inhibition 150 nM: 0%; Percent Inhibition 250 nM: 73% |
| 147823 (antisense eT*eG*e[5mC]*e[5mC]*e[5mC]*dT*dG*d[5mC]*dA*dG*d[5mC]*dT*dT*d[5mC]*dA*e[5mC]*eT*eG*eA*eA) [compound 147823] | 19% |  |
| 147825 (antisense eA*eG*eA*eA*eG*d[5mC]*dT*dG*d[5mC]*d[5mC]*dT*d[5mC]*dT*dT*d[5mC]*eT*eT*e[5mC]*e[5mC]*e[5mC]) [compound 147825] | 72% |  |
| 147826 (antisense eT*e[5mC]*eA*eG*eG*dG*dT*dG*dA*dG*d[5mC]*d[5mC]*d[5mC]*dT*dG*eT*eG*eT*eG*eT) [compound 147826] | 80% |  |
| 147827 (antisense e[5mC]*eT*eA*eA*eT*dG*dG*d[5mC]*d[5mC]*d[5mC]*d[5mC]*dT*dT*dG*dA*eT*eA*eA*eA*e[5mC]) [compound 147827] | 13% |  |
| 147828 (antisense eA*e[5mC]*eG*eT*eT*dA*dT*d[5mC]*d[5mC]*dT*dT*dG*dA*dG*dT*e[5mC]*e[5mC]*e[5mC]*eT*eG) [compound 147828] | 12% |  |
| 147829 (antisense eT*eA*eT*eA*eT*d[5mC]*d[5mC]*d[5mC]*dA*dG*dG*dT*dT*dT*d[5mC]*e[5mC]*e[5mC]*e[5mC]*eG*eG) [compound 147829] | 64% |  |
| 147831 (antisense e[5mC]*eT*eG*e[5mC]*e[5mC]*dT*dA*d[5mC]*dT*dG*d[5mC]*dA*dA*dG*dG*e[5mC]*eT*eG*eG*e[5mC]) [compound 147831] | 0% |  |
| 147833 (antisense eA*eT*eG*eA*eT*dA*d[5mC]*dA*d[5mC]*dA*dA*dT*dA*dA*dA*eG*eA*e[5mC]*eT*e[5mC]) [compound 147833] | 25% |  |
